The values that follow come from paper doi:10.1101/2021.10.07.463234v2 (biorxiv, 2021).

Structures can show the parent of a compound that is named as a salt.

One test has as its target SARS-CoV-2 Mac1 (Severe acute respiratory syndrome coronavirus 2, UniProt P0DTD1). Put plainly: biochemical. The following applies: 100 µM; inhibitor.
With `COc1ccccc1N1CCN(CC(O)COc2cccc3ccccc23)CC1` (stereo not shown) [Naftopidil], the “%inhibition” value was found to be 1.252%.
As for `CC(C)NCC(O)COc1ccc(CCOCC2CC2)cc1` (stereo not shown) [Betaxolol HCl], the “%inhibition” value worked out at 10.86%.
On the same count and under the same terms, to `COc1cc(CNC(=O)CCCC/C=C/C(C)C)ccc1O` [Capsaicin(Vanilloid)] belongs 5.806%.
Still for that read-out and setting: to `CCN(CC)CC(=O)Nc1c(C)cccc1C` [Lidocaine] belongs 1.6%.
As to `COCCCN1CCC(NC(=O)c2cc(Cl)c(N)c3c2OCC3)CC1` [Prucalopride], the “%inhibition” value worked out at 8.754%.
In the case of `CCN(CC)CCCC(C)Nc1ccnc2cc(Cl)ccc12` (stereo not shown) [Chloroquine Phosphate], the “%inhibition” value amounted to 4.168%.
Regarding `CCN(C)C(=O)Oc1cccc([C@H](C)N(C)C)c1` [Rivastigmine Tartrate], the “%inhibition” value was 0.5521%.
Take `Cc1cc(C2CCCCC2)n(O)c(=O)c1` [Ciclopirox ethanolamine]: the “%inhibition” value turned out to be 12.57%.
As to `Nc1ncnc2c1ncn2[C@@H]1O[C@H](CO)[C@@H](O)[C@@H]1O` [Vidarabine], the “%inhibition” value is reported as 17.83%.
On to `CNC(=O)c1cc(Oc2ccc(NC(=O)Nc3ccc(Cl)c(C(F)(F)F)c3)cc2)ccn1` [Sorafenib Tosylate], for which the “%inhibition” value stood at 10.76%.
`CN1[C@@H]2CC[C@H]1C[C@@H](OC(=O)c1c[nH]c3ccccc13)C2` [Tropisetron HCl]: the “%inhibition” value was determined as 30.45%.
In the case of `Cc1cccc([C@H](C)c2c[nH]cn2)c1C` [Dexmedetomidine], the “%inhibition” value was found to be 18.38%.
Still for that read-out and setting: the same measure for `CCOC(=O)C1=C[C@@H](OC(CC)CC)[C@H](NC(C)=O)[C@@H](N)C1` [Oseltamivir Phosphate]: 4.261%; for `COC(=O)c1ccc2c(C(=Nc3ccc(N(C)C(=O)CN4CCN(C)CC4)cc3)c3ccccc3)c(O)[nH]c2c1` [Nintedanib Ethanesulfonate Salt]: 8.812%; for `CC1=NN(c2ccc(C)c(C)c2)C(=O)/C1=N\Nc1cccc(-c2cccc(C(=O)O)c2)c1O` [Eltrombopag]: 0%.
`CN(Cc1cnc2nc(N)nc(N)c2n1)c1ccc(C(=O)N[C@@H](CCC(=O)O)C(=O)O)cc1` [Methotrexate]: the “%inhibition” value was 59.68%.
In the case of `CC(=O)NS(=O)(=O)c1ccc(N)cc1` [Sulfacetamide Sodium], the “%inhibition” value amounted to 3.132%.
For `N=C(N)NCCN1CCCCCCC1` [Guanethidine Sulfate], the “%inhibition” value is recorded as 0%.

The test is the same for the next values; noted with them: read-out: %inhibition.
With `Oc1c(I)cc(Cl)c2cccnc12` [Clioquinol], the inhibition at 100 µM stood at 6.9%.
Same read-out and setting: the same measure for `O=C(O)c1cc(O)c(O)c(O)c1` [Gallic acid]: 0%; for `CC#CCn1c(N2CCC[C@@H](N)C2)nc2c1c(=O)n(Cc1nc(C)c3ccccc3n1)c(=O)n2C` [Linagliptin]: 23.9%.
On to `Cc1cnc(C(=O)NCCc2ccc(S(=O)(=O)NC(=O)NC3CCCCC3)cc2)cn1` [Glipizide], for which the inhibition at 100 µM was found to be 19.9%.
On to `O=C(O)CCC(=O)c1ccc(-c2ccccc2)cc1` [Fenbufen], for which the inhibition at 100 µM amounted to 0%.
The same measure, in the same setting: the same measure for `C=C[C@]1(C)C[C@@H](OC(=O)CS[C@@H]2C[C@H]3CC[C@@H](C2)N3C)[C@]2(C)[C@H](C)CC[C@]3(CCC(=O)[C@H]32)[C@@H](C)[C@@H]1O` [Retapamulin]: 0%.
Turning to `C[C@]1(O)C[C@@H](c2nc(-c3ccc4ccc(-c5ccccc5)nc4c3)c3c(N)nccn32)C1` [Linsitinib (OSI-906)], the inhibition at 100 µM was 9.54%.
Consider `C[C@H]1O[C@H](O[C@H]2[C@H](O)[C@@H](O)[C@@H](O[C@H]3[C@H](O)[C@@H](O)C(O)O[C@@H]3CO)O[C@@H]2CO)[C@H](O)[C@@H](O)[C@@H]1N[C@H]1C=C(CO)[C@@H](O)[C@H](O)[C@H]1O` (stereo partly shown) [Acarbose], for which the inhibition at 100 µM amounted to 16%.
As for `COc1cc(N)c(Cl)cc1C(=O)N[C@H]1CCN(CCCOc2ccc(F)cc2)C[C@H]1OC` [Cisapride hydrate], the inhibition at 100 µM worked out at 0%.
For `Cc1ccccc1C(=O)Nc1ccc(C(=O)N2CCCC(N(C)C)c3ccccc32)cc1` (stereo not shown) [Mozavaptan], the inhibition at 100 µM was 21.9%.
Turning to `CCCc1cc(C(N)=S)ccn1` [Protionamide], the inhibition at 100 µM was found to be 50.9%.
For `C[C@]12CCC(=O)C=C1CC[C@@H]1[C@@H]2[C@@H](O)C[C@@]2(C)[C@H]1CC[C@]2(O)C(=O)CO` [Hydrocortisone], the inhibition at 100 µM is 5.07%.
Take `Cc1ncc(CNC(=O)N(CCCl)N=O)c(N)n1` [Nimustine Hydrochloride]: the inhibition at 100 µM was 0%.
Turning to `N[C@@H]1CCCCN(c2c(F)cc3c(=O)c(C(=O)O)cn(C4CC4)c3c2Cl)C1` [Besifloxacin HCl], the inhibition at 100 µM is 0%.
Turning to `CCOc1ccc2nc3cc(N)ccc3c(N)c2c1` [Ethacridine lactate monohydrate], the inhibition at 100 µM stood at 25.8%.
Consider `C[N+]1(C)[C@@H]2C[C@@H](OC(=O)[C@H](CO)c3ccccc3)C[C@H]1[C@@H]1O[C@@H]12` [Methscopolamine], for which the inhibition at 100 µM was found to be 0%.
Regarding `CC(C)(C)NCC(O)COc1cccc2c1CCC(=O)N2` (stereo not shown) [Carteolol HCl], the inhibition at 100 µM is 3.36%.
As for `Cn1c(=O)c2c(ncn2CC(O)CO)n(C)c1=O` (stereo not shown) [Dyphylline], the inhibition at 100 µM came to 0.0817%.
Turning to `O=C1c2cccc3c2[C@H](CCC3)CN1[C@@H]1CN2CCC1CC2` [Palonosetron HCl], the inhibition at 100 µM was determined as 0%.
Regarding `CN1c2cc(O)c(N=NC(N)=O)cc2CC1S(=O)(=O)O` (stereo not shown) [Carbazochrome sodium sulfonate (AC-17)], the inhibition at 100 µM stood at 15.7%.
For the compound `N[C@@H]1CONC1=O` [D-Cycloserine], the inhibition at 100 µM stood at 6.32%.
As for `CO[C@H]1/C=C/O[C@@]2(C)Oc3c(C)c(O)c4c(O)c(cc(O)c4c3C2=O)NC(=O)/C(C)=C\C=C\[C@H](C)[C@H](O)[C@@H](C)[C@@H](O)[C@@H](C)[C@H](OC(C)=O)[C@@H]1C` [Rifamycin sodium salt], the inhibition at 100 µM turned out to be 10.7%.
Take `c1cn2cc(-c3ccc4cn[nH]c4c3)nc(Nc3ccc(N4CCOCC4)cc3)c2n1` [Entospletinib (GS-9973)]: the inhibition at 100 µM is 29.5%.
With `CCN1CCCC1CNC(=O)c1cc(S(=O)(=O)CC)c(N)cc1OC` (stereo not shown) [Amisulpride], the inhibition at 100 µM was 7.08%.
For `CN(C)c1ccc(O)c2c1C[C@H]1C[C@H]3[C@H](N(C)C)C(O)=C(C(N)=O)C(=O)[C@@]3(O)C(O)=C1C2=O` [Minocycline HCl], the inhibition at 100 µM was determined as 0%.
On to `CC(=C(CCOC(=O)C(C)C)SSC(CCOC(=O)C(C)C)=C(C)N(C=O)Cc1cnc(C)nc1N)N(C=O)Cc1cnc(C)nc1N` (stereo in doubt) [Sulbutiamine], for which the inhibition at 100 µM was determined as 12.8%.
Same read-out and setting: the same measure for `C[N+]1(C)CCC(OC(=O)C(O)(c2ccccc2)C2CCCC2)C1` (stereo not shown) [Glycopyrrolate]: 0%; for `CC(=O)OCC(=O)[C@@]1(O)CC[C@H]2[C@@H]3CCC4=CC(=O)CC[C@]4(C)[C@H]3[C@@H](O)C[C@@]21C` [Hydrocortisone acetate]: 0%.
The same measure, in the same setting: the same measure for `CCOc1cc([C@@H](CS(C)(=O)=O)N2C(=O)c3cccc(NC(C)=O)c3C2=O)ccc1OC` [Apremilast (CC-10004)]: 0%; for `CC(C)[C@H](N)C(=O)OCCOCn1cnc2c(=O)nc(N)[nH]c21` [Valaciclovir HCl]: 39.4%.
Regarding `CCOC(=O)[C@H](CCc1ccccc1)N[C@@H](C)C(=O)N(CC(=O)O)C1Cc2ccccc2C1` [Delapril Hydrochloride], the inhibition at 100 µM stood at 0.215%.
For the compound `COc1ccc2cc1Oc1ccc(cc1)C[C@H]1c3c(cc4c(c3Oc3cc5c(cc3OC)CCN(C)[C@@H]5C2)OCO4)CCN1C` [Cepharanthine], the inhibition at 100 µM came out at 18.2%.
With `OC(c1ccccc1)(c1ccccc1)C1CCNCC1` [Azacyclonol], the inhibition at 100 µM was found to be 0%.
On to `CN(C)[C@@H]1C(=O)C(C(N)=O)=C(O)[C@@]2(O)C(=O)C3=C(O)c4c(O)cccc4[C@@](C)(O)[C@H]3C[C@@H]12` [Tetracycline HCl], for which the inhibition at 100 µM came to 22.7%.
For the compound `C=C1CC[C@@]2(O)[C@H]3Cc4ccc(O)c5c4[C@@]2(CCN3CC2CC2)[C@H]1O5` [Nalmefene HCl], the inhibition at 100 µM turned out to be 0%.
`CCCCC(=O)O[C@]1(C(=O)CO)[C@@H](C)C[C@H]2[C@@H]3CCC4=CC(=O)C=C[C@]4(C)[C@@]3(F)[C@@H](O)C[C@@]21C` [Betamethasone Valerate]: the inhibition at 100 µM amounted to 0%.
As to `Clc1ccc(Nc2nnc(Cc3ccncc3)c3ccccc23)cc1` [Vatalanib (PTK787) 2HCl], the inhibition at 100 µM amounted to 0%.
With `CCCNC(C)C(=O)Nc1c(C)csc1C(=O)OC` (stereo not shown) [Articaine HCl], the inhibition at 100 µM is 0%.
Take `CCc1c2c(nc3ccc(OC(=O)N4CCC(N5CCCCC5)CC4)cc13)-c1cc3c(c(=O)n1C2)COC(=O)[C@]3(O)CC` [Irinotecan HCl Trihydrate]: the inhibition at 100 µM was found to be 0%.
On to `C[C@@H]1O[C@@H](OC[C@H]2O[C@@H](Oc3c(-c4ccc(OCCO)c(OCCO)c4)oc4cc(OCCO)cc(O)c4c3=O)[C@H](O)[C@@H](O)[C@@H]2O)[C@H](O)[C@H](O)[C@H]1O` [Troxerutin], for which the inhibition at 100 µM was determined as 0%.
On to `C[C@H](Cn1cnc2c(N)ncnc21)OCP(=O)(O)O` [Tenofovir], for which the inhibition at 100 µM is 0%.
With `NS(=O)(=O)Cc1noc2ccccc12` [Zonisamide], the inhibition at 100 µM came out at 0%.
Consider `CC(C)/N=c1\cc2n(-c3ccc(Cl)cc3)c3ccccc3nc-2cc1Nc1ccc(Cl)cc1` [Clofazimine], for which the inhibition at 100 µM was 5.33%.
With `NS(=O)(=O)c1cc(C(=O)O)c(NCc2ccco2)cc1Cl` [Furosemide], the inhibition at 100 µM is 0%.
Consider `Cc1ccnc(NS(=O)(=O)c2ccc(N)cc2)n1` [Sulfamerazine], for which the inhibition at 100 µM was 0%.
Turning to `CCCN(CCC)CCc1cccc2c1CC(=O)N2` [Ropinirole HCl], the inhibition at 100 µM was 0%.
`CO[C@@H]1[C@H](OC(=O)/C=C/C=C/C=C/C=C/C(=O)O)CC[C@]2(CO2)[C@H]1[C@@]1(C)O[C@@H]1CC=C(C)C` [Fumagillin]: the inhibition at 100 µM was 23.6%.
On to `CC(O)c1ccc(S(=O)(=O)NC(=O)NC2CCCCC2)cc1` (stereo not shown) [Hydroxyhexamide], for which the inhibition at 100 µM came out at 28%.
Consider `Cn1nnc2c(C(N)=O)ncn2c1=O` [Temozolomide], for which the inhibition at 100 µM is 34.1%.

The term %inhibition denotes the share of the control response that was lost under treatment. Read a high %inhibition as a strong effect. What is called inhibition is the change of the read-out against control, counted positive when it falls.
